Measurements published in patent US4373106A, “Sulfamoyl-substituted phenethylamine derivatives and process of producing them” (Yamanouchi Pharmaceutical Co., Ltd., priority 1980, dated 1983).
Where two headings read alike, the source gives them in different places.

Legend:
α-adrenergic = test: α-Adrenergic blocking action: antagonism of the hypertensive response to phenylephrine in anesthetized, pentolinium-treated rats; format: in vivo; conditions: Rattus norvegicus, iv, read-out: α-adrenergic blocking ED50
Procedure: A. α-Adrenergic blocking action:
The blood pressure was measured in the rats anesthetized with urethane and treated with pentolinium.

[1] = test system: spontaneously hypertensive rats; test: Antihypertensive effects in spontaneously hypertensive rats, oral, tail cuff method; format: in vivo; conditions: systolic blood pressure higher than 150 mmHg
Procedure: Oral administration: The systolic blood pressure was measured indirectly from the tail cuff method using a programmed electrosphygmanometer (Narco Bio-Systems Inc., PE-300) on spontaneously hypertensive rats having a systolic blood pressure higher than 150 mmHg, the results being shown in Table II.

α- and β-adrenergic = conditions: as disclosed in British Pat. No. 2,006,772; cited from earlier work
[2] = rats anesthetized with urethane, treated with pentolinium, phenylephrine 10 μg/Kg i.v.

COc1ccccc1OCCNCCc1ccc(O)c(S(N)(=O)=O)c1 [Example 15, 2-Hydroxy-5-{2-[2-(2-methoxyphenoxy)ethylamino]ethyl}benzenesulfonamide]
ED50 (α-adrenergic; [2]): 1.3 µg/kg
Change in systolic blood pressure at stated dose p.o. ([1]; 10 mg/Kg p.o.): -54 ± 6.2 mmHg

CCOc1ccccc1OCCNCCc1ccc(C)c(S(N)(=O)=O)c1.Cl [Example 12, 5-{2-[2-(2-Ethoxyphenoxy)ethylamino]ethyl}-2-methylbenzenesulfonamide hydrochloride]
ED50 (α-adrenergic; [2]): 7.3 µg/kg
Change in systolic blood pressure at stated dose p.o. ([1]; 10 mg/Kg p.o.): -48 ± 2.0 mmHg

CNS(=O)(=O)c1cc(CC(C)NCCOc2ccccc2OC)ccc1OC.Cl (centres unmarked) [Example 4, 2-methoxy-5-{2-[2-(2-methoxyphenoxy)ethylamino]-2-methylethyl}-N-methylbenzenesulfonamide hydrochloride]
ED50 (α-adrenergic): 0.35 µg/kg

COc1ccccc1OCCNC(C)Cc1ccc(OC)c(S(N)(=O)=O)c1.Cl (centres unmarked) [Example 16, 2-Methoxy-5-{2-[2-(2-methoxyphenoxy)ethylamino]-2-methylethyl}benzenesulfonamide hydrochloride]
ED50 (α-adrenergic): 0.8 µg/kg
Change in systolic blood pressure at stated dose p.o. ([1]; 10 mg/Kg p.o.): -71 ± 11.1 mmHg

COc1ccccc1OCCNC(C)Cc1ccc(OC)c(S(=O)(=O)N(C)C)c1.Cl (centres unmarked) [Example 5, 2-Methoxy-5-{2-[2-(2-methoxyphenoxy)ethylamino]-2-methylethyl}-N,N-dimethylbenzenesulfonamide hydrochloride]
ED50 (α-adrenergic): 0.26 µg/kg

COc1ccccc1OCCNCCc1ccc(OC)c(S(N)(=O)=O)c1.Cl [Example 10, 2-methoxy-5-{2-[2-(2-methoxyphenoxy)ethylamino]ethyl}benzenesulfonamide hydrochloride]
ED50 (α-adrenergic; [2]): 5.9 µg/kg
Change in systolic blood pressure at stated dose p.o. ([1]; 10 mg/Kg p.o.): -57 ± 5.6 mmHg

CCC(Cc1ccc(C)c(S(N)(=O)=O)c1)NCCOc1ccccc1OC.Cl (centres unmarked) [Example 26, 5-{2-[2-(2-Methoxyphenoxy)ethylamino]-2-ethylethyl}-2-methylbenzenesulfonamide hydrochloride]
ED50 (α-adrenergic; [2]): 4 µg/kg
Change in systolic blood pressure at stated dose p.o. ([1]; 10 mg/Kg p.o.): -46 ± 4.3 mmHg

COc1ccccc1OCCNCC(O)c1ccc(C)c(S(N)(=O)=O)c1 (centres unmarked) [Compound A, 5-{1-hydroxy-2-[2-(2-methoxyphenoxy)ethylamino]ethyl}-2-methylbenzenesulfonamide, reference compound]
ED50 (α-adrenergic; [2]): 34 µg/kg
Change in systolic blood pressure at stated dose p.o. ([1]; 10 mg/Kg p.o.): -35 ± 6.4 mmHg
α- and β-adrenergic blocking actions (α- and β-adrenergic): strong α- and β-adrenergic blocking actions

CCOc1ccccc1OCCNC(C)Cc1ccc(OC)c(S(N)(=O)=O)c1.Cl (centres unmarked) [Example 20, 5-{2-[2-(2-Ethoxyphenoxy)ethylamino]-2-methylethyl}-2-methoxybenzenesulfonamide hydrochloride]
Change in systolic blood pressure at stated dose p.o. ([1]; 3 mg/Kg p.o.): -57 ± 4.2 mmHg

Cc1ccc(N(CC2=NCCN2)c2cccc(O)c2)cc1 [Phentolamine, phentolamine, reference compound]
ED50 (α-adrenergic; [2]): 61 µg/kg
Change in systolic blood pressure at stated dose p.o. ([1]; 10 mg/Kg p.o.): +7.8 ± 5.0 mmHg
Change in systolic blood pressure at stated dose p.o. ([1]; 100 mg/Kg p.o.): -70 ± 10.1 mmHg

COc1ccccc1OCCNCCc1ccc(C)c(S(N)(=O)=O)c1.Cl [Example 11, 5-{2-[2-(2-Methoxyphenoxy)ethylamino]ethyl}-2-methylbenzenesulfonamide hydrochloride]
ED50 (α-adrenergic; [2]): 12 µg/kg
Change in systolic blood pressure at stated dose p.o. ([1]; 30 mg/Kg p.o.): -50 ± 4.7 mmHg

COc1ccccc1OCCNC(C)Cc1ccc(C)c(S(N)(=O)=O)c1.Cl (centres unmarked) [Example 25, 5-{2-[2-(2-Methoxyphenoxy)ethylamino]-2-methylethyl}-2-methylbenzenesulfonamide hydrochloride]
ED50 (α-adrenergic): 1.2 µg/kg
Change in systolic blood pressure at stated dose p.o. ([1]; 10 mg/Kg p.o.): -46 ± 3.6 mmHg
